Assay results from ChEMBL document CHEMBL1201862, “PubChem BioAssay data set” (2004).
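Method: 48-hour compound exposure of cells in 96-well plates, five concentrations, linear interpolation of endpoints. GI50 = concentration required for 50% inhibition of growth.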 Active and inactive are the calls of the source. Cut-off read from the data, not from the text of the source: active = GI50 up to about 1.1 µM and inactive = higher.

Columns and labels:
Assay in all cases: NCI tumour cell line growth inhibition, 48 h
786-0 = system: 786-0
A498 = system: A498
A549 = system: A549
ACHN = system: ACHN
CAKI-1 = system: CAKI-1
CCRF-CEM = system: CCRF-CEM
COLO 205 = system: COLO 205
DLD-1 = system: DLD-1
DMS-114 = system: DMS-114
DMS-273 = system: DMS-273
EKVX = system: EKVX
HCC 2998 = system: HCC 2998
HCT-116 = system: HCT-116
HCT-15 = system: HCT-15
HL-60 = system: HL-60
HOP-18 = system: HOP-18
HOP-62 = system: HOP-62
HOP-92 = system: HOP-92
HT-29 = system: HT-29
IGROV-1 = system: IGROV-1
K562 = system: K562
KM-20L2 = system: KM-20L2
KM12 = system: KM12
LOX IMVI = system: LOX IMVI
LXFL 529 = system: LXFL 529
M14 = system: M14
M19-MEL = system: M19-MEL
MOLT-4 = system: MOLT-4
Malme-3M = system: Malme-3M
NCI-H226 = system: NCI-H226
NCI-H23 = system: NCI-H23
NCI-H460 = system: NCI-H460
NCI-H522 = system: NCI-H522
OVCAR-3 = system: OVCAR-3
OVCAR-4 = system: OVCAR-4
OVCAR-5 = system: OVCAR-5
OVCAR-8 = system: OVCAR-8
RPMI-8226 = system: RPMI-8226
RXF 393 = system: RXF 393
SF-268 = system: SF-268
SF-295 = system: SF-295
SF-539 = system: SF-539
SK-MEL-28 = system: SK-MEL-28
SK-MEL-2 = system: SK-MEL-2
SK-MEL-5 = system: SK-MEL-5
SK-OV-3 = system: SK-OV-3
SN12C = system: SN12C
SNB-19 = system: SNB-19
SNB-75 = system: SNB-75
SNB-78 = system: SNB-78
SR = system: SR
SW-620 = system: SW-620
TK-10 = system: TK-10
U-251 = system: U-251
UACC-257 = system: UACC-257
UACC-62 = system: UACC-62
UO-31 = system: UO-31
XF498 = system: XF498
Hs-578T = system: Hs-578T
MDA-MB-231 = system: MDA-MB-231
MDA-N = system: MDA-N

In the case of CC(N)Cc1ccc(Cl)c(Cl)c1 (stereo not drawn), the GI50 (786-0) is reported as 41.5 µM (inactive), the GI50 (A498) is reported as 45 µM (inactive) and the GI50 (A549) is reported as > 100 µM (inactive). The GI50 (ACHN) was 26.8 µM (inactive), the GI50 (CAKI-1) was 23.6 µM (inactive) and the GI50 (CCRF-CEM) was 28.2 µM (inactive). For the same compound, the GI50 (COLO 205) was 20.3 µM (inactive), the GI50 (DLD-1) was 34.4 µM (inactive) and the GI50 (DMS-114) was 24.2 µM (inactive). For the same compound, the GI50 (DMS-273) was 39.4 µM (inactive), the GI50 (EKVX) was 41.5 µM (inactive) and the GI50 (HCC 2998) was 17.3 µM (inactive). For the same compound, the GI50 (HCT-116) was 35.1 µM (inactive), the GI50 (HCT-15) was 30 µM and the GI50 (HL-60) was 18.6 µM (inactive). The GI50 (HOP-18) was 27.8 µM (inactive), the GI50 (HOP-62) was 39.5 µM (inactive) and the GI50 (HOP-92) was 22.6 µM (inactive). For the same compound, the GI50 (HT-29) was 24.3 µM (inactive), the GI50 (IGROV-1) was 51.6 µM (inactive) and the GI50 (K562) was 21.7 µM (inactive). The GI50 (KM-20L2) was 22.9 µM (inactive), the GI50 (KM12) was 10.6 µM (inactive) and the GI50 (LOX IMVI) was 27.2 µM (inactive). The GI50 (LXFL 529) was 19.1 µM (inactive), the GI50 (M14) was 18.4 µM (inactive) and the GI50 (M19-MEL) was 24.2 µM (inactive). The GI50 (MOLT-4) was 29.2 µM (inactive), the GI50 (Malme-3M) was 19.6 µM (inactive) and the GI50 (NCI-H226) was 33.6 µM (inactive). The GI50 (NCI-H23) was > 95.1 µM (inactive), the GI50 (NCI-H460) was 30.1 µM (inactive) and the GI50 (NCI-H522) was 29.6 µM (inactive). For the same compound, the GI50 (OVCAR-3) was 69.3 µM (inactive), the GI50 (OVCAR-4) was 67.8 µM (inactive) and the GI50 (OVCAR-5) was 30.1 µM (inactive). The GI50 (OVCAR-8) was > 66.2 µM (inactive), the GI50 (RPMI-8226) was 34.8 µM (inactive) and the GI50 (RXF 393) was 24.9 µM (inactive). For the same compound, the GI50 (SF-268) was 71.8 µM (inactive), the GI50 (SF-295) was > 52.2 µM (inactive) and the GI50 (SF-539) was 12.4 µM (inactive). For the same compound, the GI50 (SK-MEL-28) was 20.4 µM (inactive), the GI50 (SK-MEL-2) was 19.4 µM (inactive) and the GI50 (SK-MEL-5) was 16.6 µM (inactive). For the same compound, the GI50 (SK-OV-3) was 74.8 µM (inactive), the GI50 (SN12C) was 30.2 µM (inactive) and the GI50 (SNB-19) was > 96.6 µM (inactive). For the same compound, the GI50 (SNB-75) was 23.3 µM (inactive), the GI50 (SNB-78) was 28.4 µM (inactive) and the GI50 (SR) was 20.5 µM (inactive). The GI50 (SW-620) was 22 µM (inactive), the GI50 (TK-10) was 22.6 µM (inactive) and the GI50 (U-251) was 42.7 µM (inactive). The GI50 (UACC-257) was 22.9 µM (inactive), the GI50 (UACC-62) was 22.8 µM (inactive) and the GI50 (UO-31) was 19.8 µM (inactive). The GI50 (XF498) was 10.9 µM (inactive).

COc1ccc2c(c1)c[n+](C)c1c3cc(OC)c(OC)cc3ccc21 was tested, and the GI50 (A549) was 2.74 µM (inactive), the GI50 (CAKI-1) was 17.6 µM (inactive) and the GI50 (COLO 205) was 1.41 µM (inactive). For the same compound, the GI50 (DLD-1) was 4.86 µM (inactive), the GI50 (DMS-114) was 1.98 µM (inactive) and the GI50 (DMS-273) was 1.57 µM (inactive). For the same compound, the GI50 (HCT-15) was 24.9 µM, the GI50 (HOP-18) was 12.4 µM (inactive) and the GI50 (Hs-578T) was 2.23 µM (inactive). For the same compound, the GI50 (K562) was 2.04 µM (inactive), the GI50 (KM-20L2) was 4.84 µM (inactive) and the GI50 (LOX IMVI) was 1.95 µM (inactive). The GI50 (LXFL 529) was 1.96 µM (inactive), the GI50 (M19-MEL) was 6.44 µM (inactive) and the GI50 (MDA-MB-231) was 1.59 µM (inactive). For the same compound, the GI50 (MDA-N) was 2.5 µM (inactive), the GI50 (NCI-H522) was 1.67 µM (inactive) and the GI50 (OVCAR-3) was 4.16 µM (inactive). For the same compound, the GI50 (OVCAR-8) was 1.73 µM (inactive), the GI50 (RPMI-8226) was 1.75 µM (inactive) and the GI50 (SF-268) was 2.75 µM (inactive). For the same compound, the GI50 (SK-OV-3) was 9.4 µM (inactive), the GI50 (SN12C) was 2.91 µM (inactive) and the GI50 (SNB-19) was 4.78 µM (inactive). For the same compound, the GI50 (SNB-78) was 6.95 µM (inactive), the GI50 (SR) was 1.38 µM (inactive) and the GI50 (SW-620) was 1.55 µM (inactive). For the same compound, the GI50 (U-251) was 1.94 µM (inactive), the GI50 (UACC-62) was 11.3 µM (inactive) and the GI50 (XF498) was 4.23 µM (inactive).
